One assay has as its system TrkA phosphorylation. The assay can be described thus: Western blot of TrkA phosphorylation. It counts as cell-based. The text has this:
To further elucidate the mechanism of action of CD44v3 mimetic peptide 4, we studied its effect on the TrkA signaling pathway. First, we performed western blot analysis to determine the effect of mimetic peptide 4 on TrkA phosphorylation (Fig. 5A). […] Therefore, we performed acceptor (photo) bleaching (AB)-FRET to examine the effect of CD44v3 mimetic peptide 4 on NGF-induced RhoA activity in MDA-MB-231 cells transfected with a RhoA FRET biosensor [18] (Fig. 5B). […] Additionally, to confirm that this effect was independent of TrkA phosphorylation, we measured RhoA activation in MDA-MB-231 cells expressing dead TrkA kinase, which cannot be phosphorylated (Fig. 5D). […] Furthermore, a similar decrease in RhoA activation was obtained using the TrkA-H112A mutation, which also prevents the formation of the TrkA/CD44v3 complex in the absence or presence of the TrkA kinase inhibitor k252A (Supplementary Fig. 11B & C, Supplementary Video 1 & 2).
Fig. 5 CD44v3 is implicated in the phospho-TrkA-independent activation of RhoA GTPase. Phosphorylation of TrkA was measured in the presence of a scramble peptide or CD44v3 mimetic peptide 4 (P4) in the presence or absence of NGF (A). Schematic representation of the Rho biosensor; (B). […] Phosphorylation of TrkA and downstream Akt in wild-type MDA-MB-231 and MDA-MB-231 cells expressing kinase-dead TrkA, as determined by western blotting (D). […]

The test system of assay [1] is CD44v6 in MDA-MB-231 cells. The assay can be described thus: Flow cytometry, plasma membrane CD44v6. The assay is classed as cell-based. Conditions: MDA-MB-231, flow cytometry. The text has this:
The CD44v3- and CD44v6-containing isoforms expressing respectively exon 8 and 11(Fig. 1A) can interact with growth factor receptors. Using COS-7 cells with low CD44 and TrkA expression (Supplementary Fig. 1A-D), we differentially expressed TrkA and CD44s or a CD44 variant, either CD44v3 or CD44v6 (Fig. 1B, supplementary Fig. 2). […] Additionally, we evaluated the expression of TrkA and CD44v3 at the membrane level or in cells by immunofluorescence in MDA-MB-231 cells.
Supplementary file 13046_2022_2314_MOESM3_ESM.pdf: Additional file 3: Supplementary Figure 1. Validation of the ectopic expression of CD44 and/or TrkA in COS-7 cells. The expression of all CD44 isoforms (A), CD44 variant 3 (B), CD44 variant 6 (C) and TrkA ([…]; D) was evaluated by RT–qPCR (normalized using PUM-1). No expression of CD44, CD44 variants [3 or 6] or TrkA was detected in COS-7 cells (A-D) compared with that in cells transfected with the expression plasmid carrying each protein. […] Quantification of the PLA results was performed using ImageJ software (30 randomly chosen fields per condition of three different experiments). […] CD44v3 and CD44v6 levels at the plasma membrane were assessed by flow cytometry (A-D). The plasma membrane and total TrkA and CD44v3 levels were also quantified by confocal microscopy (E-H). […] The CD44v3/NGF interaction was evaluated using microscale thermophoresis (MST). […]
(A flow cytometer gives signals particle by particle.)

Regarding “IDDDEDFISST [Peptide 4, mimetic peptide 4 (…) corresponding to the C-terminal region of CD44v3]”, in the assay with TrkA phosphorylation, the “effect on NGF-induced TrkA phosphorylation” value was “did not inhibit TrkA phosphorylation induced by NGF”.

Consider “NGF: recombinant human β-NGF (Alomone Labs, Israel)”, for which the “increase of plasma membrane CD44v6” value in assay [1] (CD44v6-APC, histogram with No stim., NGF (5 min), NGF (30 min)) came to 6%. In addition, the “plasma membrane level of CD44v6 (in words)” value in assay [1] (NGF stimulation) is listed as “increased the plasma membrane level of CD44v3 but not CD44v6”.

The record behind these values is article PMC8962522, “Direct interaction of TrkA/CD44v3 is essential for NGF-promoted aggressiveness of breast cancer cells” (Journal of Experimental & Clinical Cancer Research : CR, 2022).
